The values that follow come from patent US12161829B2 (OCON MEDICAL LTD., priority 2020, dated 2024).

The series concerns endometrium. The text has this: Efforts were made to recruit an equal number of women with high endometrial thickness (>7 mm) and low endometrial thickness (<7 mm). On the day of surgery, the subject underwent a vaginal ultrasound, to re-measure the endometrial thickness, and hysteroscopy, to visualize the uterine cavity and the endometrium.
After surgery, the extracted uterus was immediately evaluated by the study pathologist for gross pathology and silver nitrate coverage of the endometrium and was later subjected to pathology (macroscopic analyses of the intra-uterine cavity and microscopic analyses of the multiple sections of the uteri) histopathological evaluations to define the extent of active material endometrium coverage and endometrial ablation.

For `O=[N+]([O-])[O-].[Ag+]` [silver nitrate], for the setting “30 minutes in uterus, extracted uterus”, the “Staining of / spillage via the fallopian tubes” value is given as “No staining of the fallopian tubes”. Besides, for the setting “histology”, the Cervix findings result was “superficial silver nitrate staining, with no damage to the columnar epithelium and no pathological findings”. Moreover, the Cauterization effect result (overall conclusion) is “elicited the expected cauterization effect”.
